In PubChem BioAssay (NCI):
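Growth conditions: 96-well plates. Treatment: test compound, 48 hours, 5 concentrations. Analysis: linear interpolation between bracketing concentrations; unreached endpoints set to highest concentration. Here, GI50 denotes the concentration required for 50% inhibition of growth. TGI marks complete inhibition of growth.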

Experiments:
Test in all cases: inhibition of tumour cell growth, NCI panel, 48 h
[1] = system: NCI-H460 lung
[2] = system: MDA-MB-435
[3] = system: KM12 colon
[4] = system: LOX IMVI melanoma
[5] = system: SNB-75 CNS
[6] = system: HCT-15 colon
[7] = system: HOP-92 NSCLC
[8] = system: T-47D breast
[9] = system: HOP-62 NSCLC
[10] = system: SK-MEL-5 melanoma
[11] = system: HT29 colon
[12] = system: SF-268 CNS
[13] = system: OVCAR-8 ovarian
[14] = system: TK-10 renal
[15] = system: UACC-257 melanoma
[16] = system: EKVX NSCLC
[17] = system: CAKI-1 renal
[18] = system: OVCAR-3 ovarian
[19] = system: SK-MEL-2 melanoma
[20] = system: UO-31 renal
[21] = system: SN12C renal
[22] = system: UACC-62 melanoma
[23] = system: SK-MEL-28 melanoma
[24] = system: A549 NSCLC
[25] = system: HL-60(TB) leukemia
[26] = system: HCT-116 colon
[27] = system: SF-295 CNS
[28] = system: 786-0 renal
[29] = system: NCI-H522 lung
[30] = system: HS 578T breast
[31] = system: K-562 leukemia
[32] = system: NCI-H23 lung
[33] = system: SR leukemia
[34] = system: MCF7 breast
[35] = system: COLO 205 colon
[36] = system: MALME-3M melanoma
[37] = system: DU-145 prostate
[38] = system: MOLT-4 leukemia
[39] = system: A498 renal
[40] = system: IGROV1 ovarian
[41] = system: M14 melanoma
[42] = system: RPMI-8226 leukemia
[43] = system: U251 CNS
[44] = system: NCI/ADR-RES ovarian
[45] = system: SK-OV-3 ovarian
[46] = system: HCC-2998 colon
[47] = system: SW-620 colon
[48] = system: RXF 393 renal
[49] = system: OVCAR-5 ovarian
[50] = system: BT-549 breast
[51] = system: SNB-19 CNS
[52] = system: ACHN renal
[53] = system: NCI-H226 lung
[54] = system: OVCAR-4 ovarian
[55] = system: SF-539 CNS
[56] = system: MDA-MB-231 breast
[57] = system: CCRF-CEM leukemia
[58] = system: PC-3 prostate

CNC(=O)c1ccccc1Nc1cc(Nc2ccc(N3CCOCC3)cc2OC)ncc1C(F)(F)F
GI50 [1]: 2.54 µM
TGI [1]: 19.4 µM
GI50 [2]: 0.815 µM
TGI [2]: > 94.3 µM
GI50 [3]: 1.18 µM
TGI [3]: 11.6 µM
GI50 [4]: 1.45 µM
TGI [4]: 18.5 µM
GI50 [5]: 1.31 µM
TGI [5]: 43.5 µM
GI50 [6]: 3.09 µM
TGI [6]: > 95.7 µM
GI50 [7]: 0.011 µM
TGI [7]: 0.172 µM
GI50 [8]: 14.5 µM
TGI [8]: 59.8 µM
GI50 [9]: 0.296 µM
TGI [9]: 52.5 µM
GI50 [10]: 4.55 µM
TGI [10]: 22.1 µM
GI50 [11]: 0.333 µM
TGI [11]: 15.4 µM
GI50 [12]: 4.86 µM
TGI [12]: 80.9 µM
GI50 [13]: 6.88 µM
TGI [13]: > 100 µM
GI50 [14]: 1.23 µM
TGI [14]: 40.2 µM
GI50 [15]: 0.346 µM
TGI [15]: 63.7 µM
GI50 [16]: 0.341 µM
TGI [16]: 64.8 µM
GI50 [17]: 1.64 µM
TGI [17]: > 54.6 µM
GI50 [18]: 13.1 µM
TGI [18]: > 85.3 µM
GI50 [19]: 3.82 µM
TGI [19]: 24.9 µM
GI50 [20]: 1.91 µM
TGI [20]: 17.8 µM
GI50 [21]: 12.2 µM
TGI [21]: > 81.5 µM
GI50 [22]: 0.419 µM
TGI [22]: 20.4 µM
GI50 [23]: 1.85 µM
TGI [23]: > 83.8 µM
GI50 [24]: 1.7 µM
TGI [24]: 22.7 µM
GI50 [25]: 1 µM
TGI [25]: 24.8 µM
GI50 [26]: 1.94 µM
TGI [26]: 19.1 µM
GI50 [27]: 1.07 µM
TGI [27]: 41.8 µM
GI50 [28]: 4.12 µM
TGI [28]: 34.6 µM
GI50 [29]: 7.67 µM
TGI [29]: 37.6 µM
GI50 [30]: 13.5 µM
TGI [30]: > 87.6 µM
GI50 [31]: 5 µM
TGI [31]: > 100 µM
GI50 [32]: 0.757 µM
TGI [32]: 60.7 µM
GI50 [33]: 0.248 µM
TGI [33]: 12.4 µM
GI50 [34]: 0.296 µM
TGI [34]: 34.5 µM
GI50 [35]: 0.161 µM
TGI [35]: 1.37 µM
GI50 [36]: 0.264 µM
TGI [36]: 63.6 µM
GI50 [37]: 3.4 µM
TGI [37]: > 81.5 µM
GI50 [38]: 6.64 µM
TGI [38]: > 86.8 µM
GI50 [39]: 2.29 µM
TGI [39]: 10.5 µM
GI50 [40]: 2.28 µM
TGI [40]: > 100 µM
GI50 [41]: 0.739 µM
TGI [41]: 32.2 µM
GI50 [42]: 3.61 µM
TGI [42]: 48 µM
GI50 [43]: 10.4 µM
TGI [43]: > 87.6 µM
GI50 [44]: 2.82 µM
TGI [44]: > 68.3 µM
GI50 [45]: 5.44 µM
TGI [45]: 57.6 µM
GI50 [46]: 1.68 µM
TGI [46]: 62.4 µM
GI50 [47]: 1.92 µM
TGI [47]: > 65.6 µM
GI50 [48]: 3.08 µM
TGI [48]: 20 µM
GI50 [49]: 0.637 µM
TGI [49]: > 100 µM
GI50 [50]: 8.14 µM
TGI [50]: 41.8 µM
GI50 [51]: 15.6 µM
TGI [51]: > 100 µM
GI50 [52]: 5.27 µM
TGI [52]: > 84.5 µM
GI50 [53]: 2.42 µM
TGI [53]: 55.6 µM
GI50 [54]: 3.24 µM
TGI [54]: > 100 µM
GI50 [55]: 6.37 µM
TGI [55]: 34 µM
GI50 [56]: 2.7 µM
TGI [56]: 47.1 µM
GI50 [57]: 8.49 µM
TGI [57]: 97.8 µM
GI50 [58]: 18.6 µM
TGI [58]: > 100 µM

Nc1ccc(S(=O)(=O)c2ccc(N)cc2)cc1
GI50 [1]: > 100 µM
TGI [1]: > 100 µM
GI50 [2]: > 100 µM
TGI [2]: > 100 µM
GI50 [3]: > 100 µM
TGI [3]: > 100 µM
GI50 [4]: > 100 µM
TGI [4]: > 100 µM
GI50 [5]: > 100 µM
TGI [5]: > 100 µM
GI50 [6]: > 100 µM
TGI [6]: > 100 µM
GI50 [7]: > 100 µM
TGI [7]: > 100 µM
GI50 [8]: > 100 µM
TGI [8]: > 100 µM
GI50 [9]: > 100 µM
TGI [9]: > 100 µM
GI50 [10]: > 100 µM
TGI [10]: > 100 µM
GI50 [11]: > 100 µM
TGI [11]: > 100 µM
GI50 [12]: > 100 µM
TGI [12]: > 100 µM
GI50 [13]: > 100 µM
TGI [13]: > 100 µM
GI50 [14]: > 100 µM
TGI [14]: > 100 µM
GI50 [15]: > 100 µM
TGI [15]: > 100 µM
GI50 [16]: > 100 µM
TGI [16]: > 100 µM
GI50 [17]: > 100 µM
TGI [17]: > 100 µM
GI50 [18]: > 100 µM
TGI [18]: > 100 µM
GI50 [19]: > 100 µM
TGI [19]: > 100 µM
GI50 [20]: > 100 µM
TGI [20]: > 100 µM
GI50 [21]: > 100 µM
TGI [21]: > 100 µM
GI50 [22]: > 100 µM
TGI [22]: > 100 µM
GI50 [23]: > 100 µM
TGI [23]: > 100 µM
GI50 [24]: > 100 µM
TGI [24]: > 100 µM
GI50 [25]: > 100 µM
TGI [25]: > 100 µM
GI50 [26]: > 100 µM
TGI [26]: > 100 µM
GI50 [27]: > 100 µM
TGI [27]: > 100 µM
GI50 [28]: > 100 µM
TGI [28]: > 100 µM
GI50 [29]: > 100 µM
TGI [29]: > 100 µM
GI50 [30]: 68.4 µM
TGI [30]: > 100 µM
GI50 [31]: > 100 µM
TGI [31]: > 100 µM
GI50 [32]: > 100 µM
TGI [32]: > 100 µM
GI50 [33]: > 100 µM
TGI [33]: > 100 µM
GI50 [34]: > 100 µM
TGI [34]: > 100 µM
GI50 [35]: > 100 µM
TGI [35]: > 100 µM
GI50 [36]: > 100 µM
TGI [36]: > 100 µM
GI50 [37]: > 100 µM
TGI [37]: > 100 µM
GI50 [38]: > 100 µM
TGI [38]: > 100 µM
GI50 [39]: 64.8 µM
TGI [39]: > 100 µM
GI50 [40]: > 100 µM
TGI [40]: > 100 µM
GI50 [41]: > 100 µM
TGI [41]: > 100 µM
GI50 [42]: > 100 µM
TGI [42]: > 100 µM
GI50 [43]: > 100 µM
TGI [43]: > 100 µM
GI50 [44]: > 100 µM
TGI [44]: > 100 µM
GI50 [45]: > 100 µM
TGI [45]: > 100 µM
GI50 [46]: > 100 µM
TGI [46]: > 100 µM
GI50 [47]: > 100 µM
TGI [47]: > 100 µM
GI50 [48]: > 100 µM
TGI [48]: > 100 µM
GI50 [49]: > 100 µM
TGI [49]: > 100 µM
GI50 [50]: > 100 µM
TGI [50]: > 100 µM
GI50 [51]: > 100 µM
TGI [51]: > 100 µM
GI50 [52]: > 100 µM
TGI [52]: > 100 µM
GI50 [53]: > 100 µM
TGI [53]: > 100 µM
GI50 [54]: > 100 µM
TGI [54]: > 100 µM
GI50 [55]: > 100 µM
TGI [55]: > 100 µM
GI50 [56]: > 100 µM
TGI [56]: > 100 µM
GI50 [57]: > 100 µM
TGI [57]: > 100 µM
GI50 [58]: > 100 µM
TGI [58]: > 100 µM
